Laboratory results reported in ChEMBL document CHEMBL1201862, “PubChem BioAssay data set” (2004).
Activity calls are given as the source filed them.

Legend:
Cannabinoid receptor 2 [1] = target: T1, Cannabinoid receptor 2 (Homo sapiens, UniProt P34972); experiment: SAR analysis of agonists of the Cannabinoid Receptor 2 using an Image-Based Assay. [Related pubchem assays (depositor defined):AID2013, AID2026]; assay type: functional
[2] = target: T2, G-protein coupled receptor 55 (Homo sapiens, UniProt Q9Y2T6); experiment: GPR55 antagonists blocking LPI-driven arrestin recruitment, primary screen, imaging, U2OS, beta-arrestin-GFP, LPI agonist (AID 2013); assay type: functional;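 also: antagonist potency measured as reduced agonist-driven arrestin aggregation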
[3] = target: T2, G-protein coupled receptor 55; experiment: GPR55 antagonist potency of analogs, SAR follow-up, imaging, U2OS, beta-arrestin-GFP, LPI agonist, set 2 (AID 2820); assay type: functional
[4] = target: T3, G-protein coupled receptor 35 (Homo sapiens, UniProt Q9HC97); experiment: SAR analysis of Antagonists of the GPR35 Receptor using an Image-Based Assay - Set 3. [Related pubchem assays (depositor defined):AID2013, AID2026]; assay type: functional
[5] = inhibitors of intracellular T. cruzi replication, confirmation, NIH3T3 host cells, beta-gal luminescence (AID 2044); assay type: functional, cell-based;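 also: intracellular parasites grown in NIH/3T3 mouse fibroblasts as host cells; luminescent beta-galactosidase reporter signal from transgenic T. cruzi replicating inside host cells; inhibitors lower the luminescence signal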
[6] = target: T3, G-protein coupled receptor 35; experiment: SAR analysis of Agonists of the GPR35 Receptor using an Image-Based Assay - Set 2. [Related pubchem assays (depositor defined):AID2013, AID2026]; assay type: functional
Cannabinoid receptor 1 [7] = target: T4, Cannabinoid receptor 1 (Homo sapiens, UniProt P21554); experiment: SAR analysis of agonists of the Cannabinoid Receptor 1 using an Image-Based Assay - Set 2. [Related pubchem assays (depositor defined):AID2013, AID2026]; assay type: functional
[8] = growth suppression of beta-catenin-knockout colon cells, dose response, cell-based, HCT116, human colon tumor (AID 1045); assay type: functional;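 also: HCT116 colon tumor cells with beta catenin knocked out; cells exposed to compound for 60 hours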
Cannabinoid receptor 2 [9] = target: T1, Cannabinoid receptor 2; experiment: SAR analysis of antagonists of the Cannabinoid Receptor 2 using an Image-Based Assay. [Related pubchem assays (depositor defined):AID2013, AID2026]; assay type: functional
Cannabinoid receptor 1 [10] = target: T4, Cannabinoid receptor 1; experiment: SAR analysis of antagonists of the Cannabinoid Receptor 1 using an Image-Based Assay - Set 2. [Related pubchem assays (depositor defined):AID2013, AID2026]; assay type: functional
[11] = growth suppression of PTEN-null colon cells, dose response, cell-based, HCT116 PTEN knockout (AID 1047); assay type: functional;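 also: HCT116 colon tumor cells with PTEN knocked out; cells exposed to compound for 60 hours before readout; potency for loss of cell viability measured by luminescence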
[12] = A Cell Based Secondary Assay To Explore Cytotoxicity of Compounds that Sensitize Mycobacterium Tuberculosis to Beta-Lactam Antibiotics.; assay type: functional
Cytochrome P450 2C9 = Cytochrome P450 2C9 (Homo sapiens, UniProt P11712)
[13] = cytotoxicity toward NIH3T3 fibroblasts, dose response, counter-screen, cell-based, ATP luminescence, mouse fibroblasts (AID 2010); assay type: functional;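 also: cells exposed to compound for about 90 hours before reading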
[14] = target: T5, Kappa-type opioid receptor (Homo sapiens, UniProt P41145); assay type: functional
Mu-type opioid receptor = Mu-type opioid receptor (Homo sapiens, UniProt P35372); experiment: HTS Image-Based Screen for Agonists of the MOR Receptor. [Related pubchem assays (depositor defined):AID1777, AID1785, AID1786, AID2133]; assay type: functional;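 also: imaging of beta-arrestin GFP recruitment into spots after receptor activation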
[15] = target: T6, Delta-type opioid receptor (Homo sapiens, UniProt P41143); experiment: HTS Image-Based Screen for Agonists of the DOR Receptor. [Related pubchem assays (depositor defined):AID1777, AID1786, AID2133]; assay type: functional
[16] = target: T5, Kappa-type opioid receptor; assay type: functional; remark: listed apart in the source
Beta-galactosidase = Beta-galactosidase (Escherichia coli, UniProt Q8VNN2); assay type: functional
[17] = system: Streptococcus sp. 'group A'; experiment: growth inhibition of control SK(-) GAS strain, dose response, counter-screen for streptokinase expression inhibitor project, luminescence, kanamycin, BacTiterGlo, confirmation (AID 1900); assay type: functional, organism-based
[18] = target: Voltage-gated inwardly rectifying potassium channel KCNH2 (Homo sapiens, UniProt Q12809); experiment: hERG protection from proarrhythmic block, potency, dose response, cell-based, thallium flux (AID 2121); assay type: ADME
Streptococcus = experiment: Group A Streptococcus viability loss, dose response, counter-screen for streptokinase expression inhibitor project, luminescence, BacTiterGlo (AID 1915); assay type: functional, organism-based;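 also: potency for reduction of bacterial viability or growth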
[19] = target: T6, Delta-type opioid receptor; experiment: HTS Image-Based Screen for Antagonists of the DOR Receptor. [Related pubchem assays (depositor defined):AID1777, AID1785, AID1786, AID2133]; assay type: functional
[20] = target: T7, Heat shock factor protein 1 (Mus musculus, UniProt P38532); experiment: inhibition of MG132-induced HSE-luciferase signal, confirmation, cell-based, NIH3T3, luminescence, dose retest (AID 2382); assay type: functional;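 also: NIH3T3 fibroblasts with HSF1-driven luciferase reporter stressed by proteasome inhibitor MG132; luminescence from HSF1-driven luciferase expression after 8 hours of MG132 stress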
T7 sequence (P38532 whole entry): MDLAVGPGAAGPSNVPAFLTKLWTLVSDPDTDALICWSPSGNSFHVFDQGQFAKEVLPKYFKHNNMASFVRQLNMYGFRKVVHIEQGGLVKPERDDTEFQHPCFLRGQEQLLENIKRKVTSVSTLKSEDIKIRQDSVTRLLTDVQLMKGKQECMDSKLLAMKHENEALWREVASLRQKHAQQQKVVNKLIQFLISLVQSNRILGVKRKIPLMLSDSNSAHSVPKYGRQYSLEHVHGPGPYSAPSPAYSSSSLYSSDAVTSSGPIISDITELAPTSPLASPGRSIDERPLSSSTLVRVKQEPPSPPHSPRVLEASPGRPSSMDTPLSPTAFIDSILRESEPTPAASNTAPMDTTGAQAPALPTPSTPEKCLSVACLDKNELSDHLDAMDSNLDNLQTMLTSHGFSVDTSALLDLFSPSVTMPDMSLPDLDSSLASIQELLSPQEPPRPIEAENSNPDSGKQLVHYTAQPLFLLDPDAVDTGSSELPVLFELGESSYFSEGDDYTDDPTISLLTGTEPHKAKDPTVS

[21] = Luminescence Cell-Based Dose Retest to Confirm Inhibitors of Cancer Stem Cells. [Related pubchem assays (depositor defined):AID2717, AID2721]; assay type: functional; conditions: Homo sapiens
[22] = mammalian cell cytotoxicity, dose response, cytotoxicity control, plate reader, cherry-pick samples (AID 504397); assay type: functional, cell-based
[23] = inhibitors of firefly luciferase expression or activity, dose response, H4 neuroglioma cells, luminescence (AID 1990); assay type: functional, cell-based
[24] = cytotoxicity in HEK-293T cells, dose response, cytotoxicity control for TCR NF-kB inhibitor project, luminescence, T-cell screen hits (AID 489026); assay type: functional, cell-based;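 also: cells exposed to compound about 14 hours before the viability readout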
[25] = inhibitors of SNCA 5'UTR-driven reporter translation, confirmation, H4 neuroglioma cells, luminescence (AID 1988); assay type: functional, cell-based
[26] = Luminescence Cell-Based Dose Retest to Confirm Activators of 5'UTR Stem-Loop Driven Alpha-Synuclein mRNA Translation in H4 Neuroglioblastoma Cells. [Related pubchem assays (depositor defined):AID1813, AID1829]; assay type: functional
[27] = Luminescence Cell-Based Dose Response HTS to Identify Activators of Luciferase Translation or Activity in H4-C Neuroglioblastoma Cells. [Related pubchem assays: 1829 (Project Summary), 1814 (Primary HTS)]; assay type: functional
[28] = Luminescence Cell-Based Dose Confirmation HTS to Identify Inhibitors of 5'UTR Stem-Loop Driven Alpha-Synuclein mRNA Translation in H4 Neuroglioblastoma Cells. [Related pubchem assays: 1827 (Project Summary), 1813 (Primary HTS)]; assay type: functional
[29] = Luminescence Cell-Based Dose HTS Response to Identify Inhibitors of 5'UTR Stem-Loop Driven Prion Protein mRNA Translation in H4-C Neuroglioblastoma Cells. [Related pubchem assays (depositor defined):AID1814, AID1827]; assay type: functional
[30] = Luminescence Cell-Based Dose Response HTS to Identify Activators of 5'UTR Stem-Loop Driven Prion Protein mRNA Translation in H4-C Neuroglioblastoma Cells. [Related pubchem assays: 1829 (Project Summary), 1814 (Primary HTS)]; assay type: functional
[31] = Luminescence Cell-Based Dose Response HTS to Identify Inhibitors of Luciferase Translation or Activity in H4-C Neuroglioblastoma Cells. [Related pubchem assays: 1813 (Primary HTS), 1827 (Project Summary)]; assay type: functional
[32] = target: T3, G-protein coupled receptor 35; experiment: SAR analysis of Antagonists of the GPR35 Receptor using an Image-Based Assay - Set 6. [Related pubchem assays (depositor defined):AID2013, AID2026]; assay type: functional
[33] = target: T3, G-protein coupled receptor 35; experiment: SAR analysis of Agonists of the GPR35 Receptor using an Image-Based Assay - Set 4. [Related pubchem assays (depositor defined):AID2013, AID2026]; assay type: functional
Cannabinoid receptor 1 [34] = target: T4, Cannabinoid receptor 1; experiment: SAR analysis of agonists of the Cannabinoid Receptor 1 using an Image-Based Assay - Set 4. [Related pubchem assays (depositor defined):AID2013, AID2026]; assay type: functional
Cannabinoid receptor 2 [35] = target: T1, Cannabinoid receptor 2; experiment: SAR analysis of agonists of the Cannabinoid Receptor 2 using an Image-Based Assay - Set 3. [Related pubchem assays (depositor defined):AID2013, AID2026]; assay type: functional
Cannabinoid receptor 1 [36] = target: T4, Cannabinoid receptor 1; experiment: SAR analysis of antagonists of the Cannabinoid Receptor 1 using an Image-Based Assay - Set 4. [Related pubchem assays (depositor defined):AID2013, AID2026]; assay type: functional
Cannabinoid receptor 2 [37] = target: T1, Cannabinoid receptor 2; experiment: SAR analysis of antagonists of the Cannabinoid Receptor 2 using an Image-Based Assay - Set 3. [Related pubchem assays (depositor defined):AID2013, AID2026]; assay type: functional
[38] = target: T2, G-protein coupled receptor 55; experiment: SAR Analysis of Selective Antagonists of GPR55 using an Image-Based Assay - Set 4. [Related pubchem assays (depositor defined):AID2013, AID2026]; assay type: functional
[39] = target: T8, Ubiquitin-conjugating enzyme E2 N (Homo sapiens, UniProt P61088); assay type: functional
T8 sequence (P61088 whole entry): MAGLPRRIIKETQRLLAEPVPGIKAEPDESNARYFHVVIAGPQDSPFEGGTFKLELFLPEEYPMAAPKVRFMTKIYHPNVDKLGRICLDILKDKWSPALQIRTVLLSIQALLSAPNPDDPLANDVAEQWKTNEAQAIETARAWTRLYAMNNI

[40] = target: T8, Ubiquitin-conjugating enzyme E2 N; assay type: functional; remark: listed apart in the source
Bcl-2-related protein A1 = target: T9, Bcl-2-related protein A1 (Mus musculus, UniProt Q07440); assay type: functional;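 also: confirmatory dose–response counterscreen on Bfl-1, used to check hits from a UBC13 polyubiquitin inhibitor campaign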
T9 sequence (Q07440 whole entry): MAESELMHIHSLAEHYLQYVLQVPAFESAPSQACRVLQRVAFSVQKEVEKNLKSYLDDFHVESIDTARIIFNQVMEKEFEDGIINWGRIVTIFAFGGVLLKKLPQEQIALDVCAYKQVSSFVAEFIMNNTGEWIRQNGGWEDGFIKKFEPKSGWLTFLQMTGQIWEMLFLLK

T2 sequence (Q9Y2T6 whole entry): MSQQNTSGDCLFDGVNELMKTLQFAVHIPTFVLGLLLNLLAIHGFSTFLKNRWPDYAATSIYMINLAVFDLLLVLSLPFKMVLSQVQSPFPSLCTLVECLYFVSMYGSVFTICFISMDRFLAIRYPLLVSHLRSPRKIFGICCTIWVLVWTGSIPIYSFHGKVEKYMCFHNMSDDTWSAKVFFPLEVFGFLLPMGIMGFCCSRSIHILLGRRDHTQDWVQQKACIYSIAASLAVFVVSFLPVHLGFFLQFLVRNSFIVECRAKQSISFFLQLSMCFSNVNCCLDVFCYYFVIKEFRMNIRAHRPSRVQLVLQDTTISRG
T4 sequence (P21554 whole entry): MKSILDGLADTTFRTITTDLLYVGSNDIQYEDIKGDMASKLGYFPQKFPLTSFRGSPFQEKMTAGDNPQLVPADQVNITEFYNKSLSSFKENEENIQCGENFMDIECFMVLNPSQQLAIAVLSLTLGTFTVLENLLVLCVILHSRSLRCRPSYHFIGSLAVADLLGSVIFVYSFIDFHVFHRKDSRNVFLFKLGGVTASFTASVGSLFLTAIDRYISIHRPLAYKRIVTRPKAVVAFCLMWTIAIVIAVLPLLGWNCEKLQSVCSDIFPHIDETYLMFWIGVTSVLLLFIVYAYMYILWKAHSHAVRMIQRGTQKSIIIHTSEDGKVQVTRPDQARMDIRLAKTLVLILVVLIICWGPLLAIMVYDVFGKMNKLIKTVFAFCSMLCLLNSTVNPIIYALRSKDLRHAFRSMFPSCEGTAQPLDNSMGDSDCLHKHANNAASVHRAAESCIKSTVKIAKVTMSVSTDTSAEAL
T1 sequence (P34972 whole entry): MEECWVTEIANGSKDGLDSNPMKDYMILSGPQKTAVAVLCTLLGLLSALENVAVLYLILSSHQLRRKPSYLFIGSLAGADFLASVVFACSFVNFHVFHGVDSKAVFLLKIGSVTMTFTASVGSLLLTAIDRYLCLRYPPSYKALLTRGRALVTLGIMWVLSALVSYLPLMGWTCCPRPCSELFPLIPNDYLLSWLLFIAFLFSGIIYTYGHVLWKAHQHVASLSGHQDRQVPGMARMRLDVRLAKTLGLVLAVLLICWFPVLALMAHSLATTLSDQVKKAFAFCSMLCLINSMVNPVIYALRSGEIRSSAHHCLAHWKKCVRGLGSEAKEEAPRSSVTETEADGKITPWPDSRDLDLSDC
T3 sequence (Q9HC97 whole entry): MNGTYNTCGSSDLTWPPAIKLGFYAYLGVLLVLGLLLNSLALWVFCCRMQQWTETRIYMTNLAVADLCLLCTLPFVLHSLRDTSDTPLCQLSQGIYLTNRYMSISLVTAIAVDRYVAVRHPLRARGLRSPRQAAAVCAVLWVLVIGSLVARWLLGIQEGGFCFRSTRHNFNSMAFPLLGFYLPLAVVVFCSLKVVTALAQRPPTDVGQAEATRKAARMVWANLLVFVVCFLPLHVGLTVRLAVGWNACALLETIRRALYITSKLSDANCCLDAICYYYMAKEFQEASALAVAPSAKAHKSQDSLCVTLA
T5 sequence (P41145 whole entry): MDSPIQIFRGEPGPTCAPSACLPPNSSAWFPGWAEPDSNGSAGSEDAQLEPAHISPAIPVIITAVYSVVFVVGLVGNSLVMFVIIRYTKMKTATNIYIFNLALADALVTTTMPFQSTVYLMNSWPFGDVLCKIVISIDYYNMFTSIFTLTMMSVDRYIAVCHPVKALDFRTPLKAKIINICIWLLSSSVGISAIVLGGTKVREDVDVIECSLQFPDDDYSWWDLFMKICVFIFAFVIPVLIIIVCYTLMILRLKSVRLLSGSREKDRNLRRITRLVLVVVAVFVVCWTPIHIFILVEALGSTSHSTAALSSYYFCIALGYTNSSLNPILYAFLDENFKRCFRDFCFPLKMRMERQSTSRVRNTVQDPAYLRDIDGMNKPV
T6 sequence (P41143 whole entry): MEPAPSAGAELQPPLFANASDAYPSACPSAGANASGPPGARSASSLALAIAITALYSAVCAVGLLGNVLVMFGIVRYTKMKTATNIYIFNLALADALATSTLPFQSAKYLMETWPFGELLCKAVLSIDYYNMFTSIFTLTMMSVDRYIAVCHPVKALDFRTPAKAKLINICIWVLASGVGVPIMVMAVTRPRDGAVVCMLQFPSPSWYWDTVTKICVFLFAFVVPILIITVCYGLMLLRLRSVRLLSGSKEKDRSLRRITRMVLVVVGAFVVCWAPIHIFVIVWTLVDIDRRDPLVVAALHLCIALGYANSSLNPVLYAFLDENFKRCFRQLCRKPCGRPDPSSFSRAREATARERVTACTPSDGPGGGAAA
Sequence of Cytochrome P450 2C9 (P11712 whole entry): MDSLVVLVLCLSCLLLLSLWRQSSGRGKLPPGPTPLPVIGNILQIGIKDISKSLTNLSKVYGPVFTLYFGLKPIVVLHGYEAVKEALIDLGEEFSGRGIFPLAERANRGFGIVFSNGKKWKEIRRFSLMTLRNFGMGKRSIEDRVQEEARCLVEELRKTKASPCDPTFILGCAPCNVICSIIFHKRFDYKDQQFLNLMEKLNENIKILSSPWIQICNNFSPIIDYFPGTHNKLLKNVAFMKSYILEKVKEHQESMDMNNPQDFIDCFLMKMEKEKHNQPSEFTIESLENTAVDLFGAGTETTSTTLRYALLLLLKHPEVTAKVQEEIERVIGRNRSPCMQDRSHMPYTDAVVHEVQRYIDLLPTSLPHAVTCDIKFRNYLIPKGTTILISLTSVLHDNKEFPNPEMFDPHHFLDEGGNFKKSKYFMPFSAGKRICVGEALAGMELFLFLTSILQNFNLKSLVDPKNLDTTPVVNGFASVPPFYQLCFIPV
Sequence of Beta-galactosidase (Q8VNN2 whole entry): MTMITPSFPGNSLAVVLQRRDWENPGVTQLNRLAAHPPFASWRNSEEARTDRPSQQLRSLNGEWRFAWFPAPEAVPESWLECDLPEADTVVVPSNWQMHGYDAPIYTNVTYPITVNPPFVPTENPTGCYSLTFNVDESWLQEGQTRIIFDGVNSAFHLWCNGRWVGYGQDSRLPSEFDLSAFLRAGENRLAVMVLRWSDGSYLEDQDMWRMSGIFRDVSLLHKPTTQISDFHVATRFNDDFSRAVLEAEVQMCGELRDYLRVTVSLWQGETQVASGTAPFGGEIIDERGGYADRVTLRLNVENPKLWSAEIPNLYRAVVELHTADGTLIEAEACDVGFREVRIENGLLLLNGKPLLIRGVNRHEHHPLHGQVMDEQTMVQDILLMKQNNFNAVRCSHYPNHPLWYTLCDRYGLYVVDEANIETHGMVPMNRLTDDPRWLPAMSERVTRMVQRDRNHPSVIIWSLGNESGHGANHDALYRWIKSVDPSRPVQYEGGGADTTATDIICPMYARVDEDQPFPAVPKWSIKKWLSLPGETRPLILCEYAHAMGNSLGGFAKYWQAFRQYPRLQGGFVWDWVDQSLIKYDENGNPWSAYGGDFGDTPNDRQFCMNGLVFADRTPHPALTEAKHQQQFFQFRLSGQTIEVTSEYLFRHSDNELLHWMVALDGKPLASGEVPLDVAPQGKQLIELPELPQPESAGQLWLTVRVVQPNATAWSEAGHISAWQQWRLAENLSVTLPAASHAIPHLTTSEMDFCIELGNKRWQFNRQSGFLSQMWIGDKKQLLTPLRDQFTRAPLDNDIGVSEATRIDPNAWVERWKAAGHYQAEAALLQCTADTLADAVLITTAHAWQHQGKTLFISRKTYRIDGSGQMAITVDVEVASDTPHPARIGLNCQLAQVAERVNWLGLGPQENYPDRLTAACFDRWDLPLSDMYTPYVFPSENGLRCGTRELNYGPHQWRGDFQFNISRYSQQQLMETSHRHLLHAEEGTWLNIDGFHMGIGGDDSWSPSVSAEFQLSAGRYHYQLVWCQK
Sequence of Mu-type opioid receptor (P35372 whole entry): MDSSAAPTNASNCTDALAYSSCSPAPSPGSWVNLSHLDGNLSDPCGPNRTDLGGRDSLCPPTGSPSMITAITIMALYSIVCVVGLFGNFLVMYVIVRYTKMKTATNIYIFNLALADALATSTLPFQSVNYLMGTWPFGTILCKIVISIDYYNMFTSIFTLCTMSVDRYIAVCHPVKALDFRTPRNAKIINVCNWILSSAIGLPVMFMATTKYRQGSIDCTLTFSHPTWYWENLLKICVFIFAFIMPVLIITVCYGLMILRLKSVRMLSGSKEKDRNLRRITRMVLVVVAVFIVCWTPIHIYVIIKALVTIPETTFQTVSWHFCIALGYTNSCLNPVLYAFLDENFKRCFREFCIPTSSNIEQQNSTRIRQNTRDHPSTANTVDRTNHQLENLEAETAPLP

CC(C)(C)NS(=O)(=O)c1ccc(NC(=O)C(Sc2ccccc2)c2ccccc2)cc1 (stereo unspecified)
EC50 (Cannabinoid receptor 2 [1]): > 32 µM (inactive)
IC50 [2]: 678 nM (active)
IC50 [3]: 978 nM (active)
IC50 [4]: > 32 µM (inactive)
EC50 [5]: 2.31 µM (active)
EC50 [6]: > 32 µM (inactive)
EC50 (Cannabinoid receptor 1 [7]): > 32 µM (inactive)
EC50 [8]: 14.7 µM (active)
IC50 (Cannabinoid receptor 2 [9]): > 32 µM (inactive)
IC50 (Cannabinoid receptor 1 [10]): 2.71 µM (active)
EC50 [11]: 14.5 µM (active)
CC50 [12]: 27.1 µM (active)
AC50 (Cytochrome P450 2C9): 2 µM (inconclusive)
EC50 [13]: > 60 µM (not active)

COc1ccc(/C=C2\SC(=N)N(c3nccs3)C2=O)cc1OC
IC50 [14]: > 32 µM
EC50 [5]: 3.66 µM (active)
EC50 (Mu-type opioid receptor): > 32 µM (inactive)
EC50 [15]: > 32 µM (inactive)
IC50 [16]: 7.22 µM (active)
EC50 (Beta-galactosidase): > 31.5 µM (inactive)
EC50 [17]: 1.69 µM (active)
EC50 [18]: 84.7 µM (active)
EC50 (Streptococcus): 3.61 µM (active)
IC50 [19]: > 32 µM (inactive)

c1ccc(CNc2nc(N3CCN(Cc4ccccc4)CC3)nc3ccccc23)cc1
EC50 [20]: > 195 µM (not active)
AC50 [21]: 3.43 µM (active)
AC50 [22]: 66.2 µM (active)

COc1ccc(/C=C/C(=O)c2cc(F)ccc2OC(=O)c2ccccc2)cc1OC
EC50 [23]: 12.8 µM (active)
IC50 [24]: > 80 µM (inactive)
EC50 [25]: < 195 nM (active)
EC50 [26]: 666 nM (inconclusive)
EC50 [27]: 697 nM (inconclusive)
EC50 [28]: 666 nM (active)
EC50 [29]: 699 nM (active)
EC50 [30]: 699 nM (inconclusive)
EC50 [31]: 697 nM (active)

O=C(N1CCC(n2nc(-c3ccccc3)oc2=O)CC1)C1(c2ccccc2)CCCC1
IC50 [32]: > 32 µM (inactive)
EC50 [33]: > 32 µM (inactive)
EC50 (Cannabinoid receptor 1 [34]): > 32 µM (inactive)
EC50 (Cannabinoid receptor 2 [35]): > 32 µM (inactive)
IC50 (Cannabinoid receptor 1 [36]): 1.98 µM (active)
IC50 (Cannabinoid receptor 2 [37]): 14 µM (inactive)
IC50 [38]: 2.7 µM (active)

C/C(=N\NC(=O)CSCc1ccc([N+](=O)[O-])cc1)c1ccccc1
IC50 [39]: 6.86 µM (active)
IC50 [40]: 4.9 µM (active)
IC50 (Bcl-2-related protein A1): > 20 µM (inactive)
